Results as given in US20240409543A1, “PYRROLOPYRAZOLE SPIRO COMPOUND” (CHIA TAI TIANQING PHARMACEUTICAL GROUP CO., LTD., priority 2021, published 2024).

Tests used:
SHP2 = target: T1, SHP2 (Homo sapiens, UniProt Q06124); assay: SHP2 in-vitro enzymology experiment (Homogeneous Full Length SHP-2 Assay Kit, DiFMUP substrate); type: biochemical; conditions: 60 min pre-incubation, 30 min reaction at 25° C.
T1 construct: Homogeneous Full Length SHP-2 Assay Kit (purchased from BPS Bioscience); purchased BPS Bioscience
T1 sequence (Q06124 1-593): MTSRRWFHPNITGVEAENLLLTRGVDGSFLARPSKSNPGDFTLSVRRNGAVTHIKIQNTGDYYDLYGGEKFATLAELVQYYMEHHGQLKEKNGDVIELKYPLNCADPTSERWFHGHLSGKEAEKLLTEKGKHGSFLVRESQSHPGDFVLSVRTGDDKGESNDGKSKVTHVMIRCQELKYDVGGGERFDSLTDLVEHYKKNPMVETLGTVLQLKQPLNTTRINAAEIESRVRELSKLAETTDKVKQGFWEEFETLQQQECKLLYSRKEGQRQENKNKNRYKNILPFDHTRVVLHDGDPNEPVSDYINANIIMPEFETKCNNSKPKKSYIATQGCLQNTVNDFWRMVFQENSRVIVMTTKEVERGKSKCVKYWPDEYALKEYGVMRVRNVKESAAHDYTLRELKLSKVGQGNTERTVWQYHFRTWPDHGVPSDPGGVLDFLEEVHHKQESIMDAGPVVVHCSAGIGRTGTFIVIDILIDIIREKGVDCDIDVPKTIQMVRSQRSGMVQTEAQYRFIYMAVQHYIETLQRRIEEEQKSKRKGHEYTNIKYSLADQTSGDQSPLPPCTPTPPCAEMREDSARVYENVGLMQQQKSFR
Experimental: Experimental materials: Homogeneous Full Length SHP-2 Assay Kit (purchased from BPS Bioscience) and NIVO multimode microplate reader.
Preparation of 1× buffer (ready-to-use): 5× buffer was diluted with deionized water to give 1× buffer, which was then placed on ice for later use.
Each test compound was diluted with 100% DMSO to 100 μM as the first concentration, and then diluted in a 4-fold gradient to the 8th concentration (i.e., from 100 μM to 6.1 nM) using a multi-channel pipette. Each gradient of the test compound was diluted with 1× buffer to prepare a working solution with 10% DMSO. The resulting solution was then added to the corresponding wells of a plate at 5 μL/well, with duplicate wells set up. The plate was then centrifuged at 1000 rpm for 1 min.
18 μL of a prepared reaction mixed solution (containing 12.25 μL of deionized water, 5 μL of 5× buffer; 0.25 μL of SHP-2 substrate polypeptide (100 μM), and 0.5 μL of DTT (250 mM)) was added to each well. The plate was then centrifuged at 1000 rpm for 1 min.
An SHP-2 enzyme was diluted to 0.1 ng/μL with 1× buffer. The resulting solution was added to the corresponding wells at 2 μL/well, and 2 μL of 1× buffer and […] were added to each negative control well. This step was performed on ice. The reaction system was then incubated at 25° C. for 60 min for compound pre-incubation.
After the compound pre-incubation was completed, 25 μL of a substrate working solution (containing 19.45 μL of deionized water, 5 μL of 5× buffer; 0.5 μL of DTT (250 mM), and 0.05 μL of SHP-2 Substrate (DiFMUP) (10 mM)) was added to each well, and the reaction system was allowed to react at 25° C. for 30 min. At that time, the final concentration gradient of the compound ranged from 1 μM to 0.061 nM. After the reaction was completed, the fluorescence values were read using the NIVO multimode microplate reader, with an excitation wavelength of 360 nm and an emission wavelength of 460 nm.
Detection of compound background reading values: Each gradient of the test compound diluted with 100% DMSO was added to a new compound plate at 5 μL/well, and then 1× buffer was added at 45 μL/well to achieve a 10-fold dilution to prepare a working solution with 10% DMSO. Next, the compound working solution was added to the detection plate at 5 μL/well, and then 1× buffer was added at 45 μL/well to achieve another 10-fold dilution, bringing the final concentration of DMSO to 1%. The plate was then centrifuged at 1000 rpm for 1 min. The fluorescence values were read using the multimode microplate reader, with an excitation wavelength of 360 nm and an emission wavelength of 460 nm.
The original data were converted to inhibition rates and the IC50 values were obtained by curve fitting using a four-parameter method.

[1] = tested on: ERK phosphorylation in H358 cells; assay: Inhibitory activity against ERK phosphorylation in H358 cells (HTRF Phospho-ERK1/2 kit); type: cell-based; conditions: Homo sapiens, NCI-H358; starved H358 cells, 1 h compound incubation; read-out: H358 cell ERK phosphorylation IC50
Experimental: H358 cells purchased from Nanjing Cobioer Biosciences Co., Ltd., 1640 medium purchased from Biological industries, fetal bovine serum purchased from Biosera, and Advanced Phospho-ERK1/2 (THR202/TYR204) KIT purchased from Cisbio.
• 1. H358 cells were plated in a transparent 96-well cell culture plate, with 80 μL of cell suspension per well, each well containing 10000 H358 cells. The cell plate was incubated in a CO2 incubator at 37° C. overnight. • 2. The cell supernatant was discarded, and a starvation medium (1640+0.02% fetal bovine serum+1% […]) was added at 80 μL/well. The cell plate was then incubated in a CO2 incubator for cell starvation treatment overnight; • 3. Each test compound was diluted with 100% DMSO to 4 mM as the first concentration, and then diluted in a 5-fold gradient to the 8th concentration (i.e., from 4 mM to […]) using a pipette. 1 μL of the compound was then added to 79 μL of cell starvation medium. The mixture was mixed well, and then the compound solution was added to the corresponding wells of the cell plate at 20 μL/well. The cell plate was then put back to the CO2 incubator for incubation for another 1 h. At that time, the concentration of the compound ranged from 10 μM to 0.0256 nM, with the concentration of DMSO being 0.25%. • 4. After the incubation was completed, the cell supernatant was discarded, and a cell lysis buffer was added at 50 μL/well. The plate was then incubated with shaking at room temperature for 30 min. 5. The Phospho-ERK1/2 Eu Cryptate antibody and Phospho-ERK1/2 d2 antibody were diluted in a 20-fold gradient with the Detection buffer. • 6. 16 μL of the cell lysate supernatant from each well was transferred to a new 384-well white microplate, and then 2 μL of the Phospho-ERK1/2 Eu Cryptate antibody dilution and 2 μL of the Phospho-ERK1/2 d2 antibody dilution were added to each well. The mixture was incubated at room temperature for 4 h. • 7. After the incubation was completed, HTRF values were read using a multimode microplate reader, with an excitation wavelength of 320 nm and emission wavelengths of 615 nm and 665 nm.
The original data were converted to inhibition rates and then the IC50 values were obtained by curve fitting using a four-parameter method.

Row | IC50 (SHP2) [nM] | IC50 [1] [nM] | SMILES
1 | 1.73 | 21.2 | Cc1nc(N2CCC3(CC2)Cn2nccc2C3N)c(CO)nc1Sc1ccnc(N)c1Cl (centres unmarked) [Compound 1]
2 | 2.87 | 84.1 | CNc1nccc(Sc2nc(CO)c(N3CCC4(CC3)Cn3nccc3C4N)nc2C)c1Cl (centres unmarked) [Compound 2]
3 | 2.14 | 75.8 | Cc1nc(N2CCC3(CC2)Cn2nccc2C3N)c(CO)nc1Sc1cccnc1C(F)(F)F (centres unmarked) [Compound 4]
4 | 3.15 | 57.1 | Cc1nc(N2CCC3(CC2)Cn2nccc2C3N)c(CO)nc1Sc1ccnc(N)c1F (centres unmarked) [Compound 6]
